Results as given in BindingDB's records for doi:10.7270/Q2M32T6M (Vanderbilt Screening Center for GPCRs, Ion Channels and …, 2009).

The compounds below were run against T1, Solute carrier family 12 member 5 (Homo sapiens, UniProt Q9H2X9) (assay: KCC2 modulator potency by thallium flux, dose response, cell-based, HEK293 KCC2, FluoZin-2 fluorescence (AID 1736)). Settings: not given.
T1 sequence (Q9H2X9 whole entry): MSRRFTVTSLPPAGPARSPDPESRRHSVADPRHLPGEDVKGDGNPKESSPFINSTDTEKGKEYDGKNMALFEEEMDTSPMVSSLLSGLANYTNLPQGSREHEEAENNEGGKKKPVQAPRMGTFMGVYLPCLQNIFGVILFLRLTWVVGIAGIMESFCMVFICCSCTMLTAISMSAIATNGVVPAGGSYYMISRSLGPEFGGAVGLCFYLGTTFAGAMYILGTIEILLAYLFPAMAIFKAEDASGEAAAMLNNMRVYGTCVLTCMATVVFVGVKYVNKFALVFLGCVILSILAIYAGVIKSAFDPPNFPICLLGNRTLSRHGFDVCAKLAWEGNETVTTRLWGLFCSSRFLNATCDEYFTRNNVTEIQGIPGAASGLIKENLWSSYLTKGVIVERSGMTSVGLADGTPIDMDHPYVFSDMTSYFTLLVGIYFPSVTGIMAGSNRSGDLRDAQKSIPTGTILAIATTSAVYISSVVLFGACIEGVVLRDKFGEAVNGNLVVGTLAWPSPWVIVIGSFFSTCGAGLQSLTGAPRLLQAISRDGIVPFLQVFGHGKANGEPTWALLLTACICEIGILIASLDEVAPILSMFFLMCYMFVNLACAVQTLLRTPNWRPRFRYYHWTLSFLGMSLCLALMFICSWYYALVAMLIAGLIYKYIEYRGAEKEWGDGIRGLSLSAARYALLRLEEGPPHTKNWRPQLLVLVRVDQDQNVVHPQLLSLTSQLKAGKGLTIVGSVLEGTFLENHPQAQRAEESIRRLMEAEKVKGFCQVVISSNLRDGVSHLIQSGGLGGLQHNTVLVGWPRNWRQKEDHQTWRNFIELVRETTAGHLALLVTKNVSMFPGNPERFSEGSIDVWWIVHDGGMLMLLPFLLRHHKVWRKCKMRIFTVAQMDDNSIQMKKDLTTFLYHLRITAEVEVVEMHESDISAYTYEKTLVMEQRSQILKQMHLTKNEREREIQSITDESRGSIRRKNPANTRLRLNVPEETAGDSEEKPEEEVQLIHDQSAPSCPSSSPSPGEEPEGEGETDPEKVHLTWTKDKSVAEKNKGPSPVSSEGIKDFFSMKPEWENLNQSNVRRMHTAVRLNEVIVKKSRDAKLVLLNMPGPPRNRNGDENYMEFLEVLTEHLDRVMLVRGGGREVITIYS

EC50	SMILES
27.3 µM	COCCN1C(=O)/C(=C/c2ccc(OCc3ccc(C(=O)O)cc3)c(OC)c2)S/C1=N/c1ccccc1 [4-[(2-methoxy-4-{[3-(2-methoxyethyl)-4-oxo-2-(phenylimino)-1,3-thiazolidin-5-ylidene]methyl}phenoxy)methyl]benzoic acid]
10.8 µM	O=C(NC(=S)Nc1nc(-c2cccc([N+](=O)[O-])c2)cs1)c1cc(Cl)ccc1Cl [2,5-bis(chloranyl)-N-[[4-(3-nitrophenyl)-1,3-thiazol-2-yl]carbamothioyl]benzamide]
2.04 µM	CCC(CC)NC(=O)CSc1nnc(-c2c[nH]c3ccccc23)o1 [MLS001017505]
6.9 µM	Cc1onc(C(=O)N2CCN(Cc3ccccc3)CC2)c1[N+](=O)[O-] [(4-benzylpiperazin-1-yl)-(5-methyl-4-nitro-1,2-oxazol-3-yl)methanone]
3.32 µM	O=C(OCn1ncc(Cl)c(Cl)c1=O)c1ccc(F)cc1 [(4,5-dichloro-6-oxopyridazin-1-yl)methyl 4-fluorobenzoate]
8.92 µM	O=c1c(-c2cnn(-c3ccccc3)c2)coc2cc(O)ccc12 [7-hydroxy-3-(1-phenyl-1H-pyrazol-4-yl)-4H-chromen-4-one]
31.5 µM	Cc1[nH]c2ccccc2c1Cc1n[nH]c(=S)n1C
5.41 µM	CCOc1cc(S(=O)(=O)NCc2ccccc2)ccc1F [3-ethoxy-4-fluoranyl-N-(phenylmethyl)benzenesulfonamide]
7.48 µM	O=C(NC(=S)Nc1nc(-c2cccc([N+](=O)[O-])c2)cs1)c1ccccc1Cl [2-chloranyl-N-[[4-(3-nitrophenyl)-1,3-thiazol-2-yl]carbamothioyl]benzamide]
4.25 µM	O=C(O)CCc1cc(I)c(Oc2ccc(O)c(I)c2)c(I)c1 [3-[4-(4-hydroxy-3-iodophenoxy)-3,5-diiodophenyl]propanoic acid]
2.22 µM	Cc1ccc(C2=CSC3=NNC4(CCCCC4)NN23)cc1 [SMR000306481]
3 µM	CCc1cc(C(=O)N2CCCC(CNC(=O)c3ccc(-c4ccccc4)cc3)C2)no1 (configuration not stated) [MLS000731765]
9.41 µM	Cc1n[nH]c(O)c1C(c1ccc(-c2ccc(F)cc2)o1)c1c(C)n[nH]c1O [4-[[5-(4-fluorophenyl)furan-2-yl]-(3-methyl-5-oxo-1,2-dihydropyrazol-4-yl)methyl]-5-methyl-1,2-dihydropyrazol-3-one]
113 µM	O=C(CC(C(=O)N1CCc2ccccc21)n1ccnc1)N1CCc2ccccc2C1 (configuration not stated) [1-(2,3-dihydroindol-1-yl)-4-(3,4-dihydro-1H-isoquinolin-2-yl)-2-(1-imidazolyl)butane-1,4-dione]
6.09 µM	Cc1cccc(NC(=S)NN=C2C(=O)N(CN3CCOCC3)c3ccccc32)c1C [(3Z)-1-(morpholin-4-ylmethyl)-1H-indole-2,3-dione 3-[N-(2,3-dimethylphenyl)thiosemicarbazone]]
0.733 µM	Cc1c(N=C2Nc3cccc4cccc2c34)c(=O)n(-c2ccccc2)n1C [4-(2-benzo[cd]indolylamino)-1,5-dimethyl-2-phenyl-3-pyrazolone]
0.0106 µM	O=C(NNc1nc(-c2ccccc2)cs1)c1ccccc1 [MLS000547345]
0.498 µM	CS/C(=N\Cc1ccc(F)cc1)NS(=O)(=O)c1cccs1 [3-(4-fluorobenzyl)-2-methyl-1-(2-thienylsulfonyl)isothiourea]
367 µM	Oc1ccccc1CN=Nc1nc2ccccc2o1 [(6E)-6-[(1,3-benzoxazol-2-ylhydrazo)methylidene]-1-cyclohexa-2,4-dienone]
2 µM	CC(=NNC(=O)c1ccc(Br)cc1)c1ccccc1 [MLS000558629]
4.16 µM	N#Cc1nc(-c2cccs2)oc1N1CCN(Cc2ccccc2)CC1 [5-(4-benzyl-1-piperazinyl)-2-(2-thienyl)-1,3-oxazole-4-carbonitrile]

EC50	SMILES
12.2 µM	O=C(O)CC/C(=C\c1ccc(N2CCOCC2)c([N+](=O)[O-])c1)c1nc2ccccc2s1 [(E)-4-(1,3-benzothiazol-2-yl)-5-(4-morpholin-4-yl-3-nitro-phenyl)pent-4-enoic acid]
14.1 µM	COc1ccc(N2C(=S)N=C(Nc3cccc(C)c3)C23CCCCC3)cc1 [1-(4-methoxyphenyl)-4-(3-methylanilino)-1,3-diazaspiro[4.5]dec-3-ene-2-thione]
21.1 µM	Cc1ccc(/C=C2/Sc3ccccc3N(CC(=O)NCCCOC(C)C)C2=O)cc1 [2-[(2E)-2-[(4-methylphenyl)methylidene]-3-oxidanylidene-1,4-benzothiazin-4-yl]-N-(3-propan-2-yloxypropyl)ethanamide]
4.2 µM	O=C1Nc2ccc([N+](=O)[O-])cc2OC1CCN1CCN(Cc2ccccc2)CC1 (configuration not stated) [2-[2-(4-benzylpiperazin-1-yl)ethyl]-7-nitro-4H-1,4-benzoxazin-3-one]
72.4 µM	O=C(CCSCCc1ccccn1)Nc1ccc(Cc2ccncc2)cc1 [3-(2-pyridin-2-ylethylsulfanyl)-N-[4-(pyridin-4-ylmethyl)phenyl]propanamide]
4.22 µM	COc1ccccc1C(=O)NC1CCN(C(=S)NCCc2ccccc2)CC1 [2-methoxy-N-[1-(2-phenylethylcarbamothioyl)piperidin-4-yl]benzamide]
0.384 µM	CN(Cc1ccccc1)S(=O)(=O)c1ccc(Cl)c(C(=O)NCCc2ccccn2)c1 [2-chloranyl-5-[methyl-(phenylmethyl)sulfamoyl]-N-(2-pyridin-2-ylethyl)benzamide]
4.93 µM	Cn1c(C(=O)NCCCN2CCN(c3ccccc3F)CC2)cc2c(=O)n(C)c3ccccc3c21 [MLS000118127]
5.1 µM	CC(=O)NCC1CCCN(c2nc3nonc3nc2N(C)Cc2ccccc2)C1 (configuration not stated) [MLS000731683]
8.13 µM	O=C(NC1CCCC1)C(c1ccncc1)N(Cc1ccco1)C(=O)c1ccc(-c2ccccc2)[nH]1 (configuration not stated) [MLS000718066]
1.22 µM	Cc1ccc(Nc2nnc(SCC(=O)c3ccc(Br)s3)s2)c(C)c1 [1-(5-bromanylthiophen-2-yl)-2-[[5-[(2,4-dimethylphenyl)amino]-1,3,4-thiadiazol-2-yl]sulfanyl]ethanone]
2.58 µM	c1ccc(-c2csc(N=NCc3ccco3)n2)cc1 [(2-furfurylideneamino)-(4-phenylthiazol-2-yl)amine]
2.06 µM	O=[N+]([O-])c1ccc(CSc2nnc(SCc3ccccc3)s2)cc1 [2-(benzylthio)-5-[(4-nitrobenzyl)thio]-1,3,4-thiadiazole]
1.48 µM	COC(=O)c1sccc1NC(=S)OC [3-(methoxycarbothioylamino)thiophene-2-carboxylic acid methyl ester]
0.409 µM	O=C(O)/C=C/c1cn(Cc2ccccc2Cl)nc1-c1ccccc1 [(E)-3-[1-(2-chlorobenzyl)-3-phenyl-pyrazol-4-yl]acrylic acid]
8.29 µM	S=C(NN=Cc1cccc2ccccc12)Nc1cccc(Cl)c1 [1-(3-chlorophenyl)-3-(1-naphthalenylmethylideneamino)thiourea]
86000 µM	O=C(O)CCN(Cc1ccccc1)S(=O)(=O)c1c(Cl)cccc1Cl [3-[(2,6-dichlorophenyl)sulfonyl-(phenylmethyl)amino]propanoic acid]
11.9 µM	COc1ccccc1N1CCN(C(=S)NC(=O)/C=C/c2ccccc2)CC1 [(E)-N-[4-(2-Methoxy-phenyl)-piperazine-1-carbothioyl]-3-phenyl-acrylamide]
2.79 µM	CC(=NNC(=S)Nc1c(C)cccc1C)c1cc2ccccc2o1 [SMR000260555]
9.24 µM	Fc1cccc(F)c1C=NNC(=S)Nc1cccnc1 [1-[(2,6-difluorobenzylidene)amino]-3-(3-pyridyl)thiourea]

Same assay, conditions: inactive by the depositor's call

EC50	SMILES
8.12 µM	Cc1ccc(C(=O)CSc2nnc(COc3cccc4cccnc34)o2)cc1 [1-(4-methylphenyl)-2-[[5-(8-quinolinyloxymethyl)-1,3,4-oxadiazol-2-yl]thio]ethanone]
12.1 µM	CC(C)c1ccc(NC(=O)c2cnn(-c3ccccc3)c2NC(=O)c2ccco2)cc1 [5-(2-furoylamino)-N-p-cumenyl-1-phenyl-pyrazole-4-carboxamide]
1890 µM	O=C(CSC1=NCCS1)Nc1nc(-c2ccccc2)cs1 [2-(4,5-dihydro-1,3-thiazol-2-ylsulfanyl)-N-(4-phenyl-1,3-thiazol-2-yl)acetamide]
82.6 µM	COn1c(SC2CCCCC2)nc2ccccc2c1=O [2-(cyclohexylthio)-3-methoxy-4-quinazolinone]
22.6 µM	CNC(=O)C(=O)Nc1nc(C23CC4CC(CC(C4)C2)C3)cs1 [N'-[4-(1-adamantyl)-1,3-thiazol-2-yl]-N-methyl-ethanediamide]
101 µM	O=C(Nc1cc(S(=O)(=O)N2CCCCC2)ccc1Cl)c1ccccc1NS(=O)(=O)c1ccc(F)cc1 [MLS000707627]
